Experimental findings from ChEMBL document CHEMBL5380794, “Discovery of a Potent and Selective STAT5 PROTAC Degrader with Strong Antitumor Activity In Vivo in Acute Myeloid Leukemia” (J Med Chem, 2023) are described below.

pKi: −log10 of the molar value. Active and inactive are the calls of the source. The rule behind the calls is not given here.

Assay [1] concerns SKNO-1. The assay can be described thus: Effect on STAT4 level in human SKNO-1 cells upto 5 uM measured for 18 hrs by Western blot analysis. The assay is classed as functional, cell-based.
Assay [2] deals with MV4-11. The assay is described as follows: Effect on STAT1 level in human MV4-11 cells upto 5 uM measured for 18 hrs by Western blot analysis. Type of assay: functional, cell-based.
Assay [3] relates to SKNO-1. The assay can be described thus: Effect on STAT3 level in human SKNO-1 cells upto 5 uM measured for 18 hrs by Western blot analysis. Type of assay: functional, cell-based.
Assay [4] deals with T1, Signal transducer and activator of transcription 5A (Homo sapiens) (UniProt P42229).
T1 sequence (whole entry): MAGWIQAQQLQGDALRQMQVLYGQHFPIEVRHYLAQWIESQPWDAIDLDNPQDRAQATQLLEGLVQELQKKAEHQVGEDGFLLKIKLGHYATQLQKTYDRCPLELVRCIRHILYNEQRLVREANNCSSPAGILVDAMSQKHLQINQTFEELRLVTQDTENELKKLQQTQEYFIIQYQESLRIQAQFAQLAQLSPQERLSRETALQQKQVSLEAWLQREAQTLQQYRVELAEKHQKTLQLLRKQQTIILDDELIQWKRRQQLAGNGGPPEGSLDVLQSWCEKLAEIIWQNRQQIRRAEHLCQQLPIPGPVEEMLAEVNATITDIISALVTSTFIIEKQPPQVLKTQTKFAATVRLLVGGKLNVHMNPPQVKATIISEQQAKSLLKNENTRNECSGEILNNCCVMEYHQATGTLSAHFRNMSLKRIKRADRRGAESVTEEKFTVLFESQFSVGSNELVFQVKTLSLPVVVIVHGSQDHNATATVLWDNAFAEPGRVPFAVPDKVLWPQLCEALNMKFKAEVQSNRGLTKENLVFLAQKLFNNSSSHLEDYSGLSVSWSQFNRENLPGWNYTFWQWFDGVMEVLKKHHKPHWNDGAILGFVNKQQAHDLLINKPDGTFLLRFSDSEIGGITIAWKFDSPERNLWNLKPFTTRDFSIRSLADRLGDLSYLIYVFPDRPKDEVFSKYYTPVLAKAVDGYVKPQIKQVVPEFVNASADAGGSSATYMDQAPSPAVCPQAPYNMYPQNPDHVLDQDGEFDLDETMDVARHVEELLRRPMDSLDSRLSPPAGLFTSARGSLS
The assay is described as follows: Inhibition of STAT5 phosphorylation in human MV4-11 cells assessed as reduction in […] phosphorylation at Y694 residue at 0.2 uM measured for 6 hrs by Western blot analysis. The assay is classed as cell-based.

Assay [5] relates to SKNO-1. The assay is described as follows: Effect on STAT2 level in human SKNO-1 cells upto 5 uM measured for 18 hrs by Western blot analysis. The assay is classed as functional, cell-based.
Assay [6] deals with MV4-11. The assay can be described thus: Effect on STAT6 level in human MV4-11 cells upto 5 uM measured for 18 hrs by Western blot analysis. Type of assay: functional, cell-based.
For assay [7], the system named is SKNO-1. The assay is described as follows: Effect on STAT6 level in human SKNO-1 cells upto 5 uM measured for 18 hrs by Western blot analysis. Type of assay: functional, cell-based.
Assay [8] deals with T1, Signal transducer and activator of transcription 5A (Homo sapiens). The assay can be described thus: Inhibition of STAT5 phosphorylation in human MV4-11 cells assessed as reduction in STAT5 level at 1 uM measured for 6 hrs by Western blot analysis. Type of assay: cell-based.
The target in assay [9] is Protein cereblon (Homo sapiens, UniProt Q96SW2). The assay can be described thus: Binding affinity to GST-tagged wild type human CRBN assessed as inhibition constant by TR-FRET assay.
Sequence of Protein cereblon (Q96SW2 whole entry): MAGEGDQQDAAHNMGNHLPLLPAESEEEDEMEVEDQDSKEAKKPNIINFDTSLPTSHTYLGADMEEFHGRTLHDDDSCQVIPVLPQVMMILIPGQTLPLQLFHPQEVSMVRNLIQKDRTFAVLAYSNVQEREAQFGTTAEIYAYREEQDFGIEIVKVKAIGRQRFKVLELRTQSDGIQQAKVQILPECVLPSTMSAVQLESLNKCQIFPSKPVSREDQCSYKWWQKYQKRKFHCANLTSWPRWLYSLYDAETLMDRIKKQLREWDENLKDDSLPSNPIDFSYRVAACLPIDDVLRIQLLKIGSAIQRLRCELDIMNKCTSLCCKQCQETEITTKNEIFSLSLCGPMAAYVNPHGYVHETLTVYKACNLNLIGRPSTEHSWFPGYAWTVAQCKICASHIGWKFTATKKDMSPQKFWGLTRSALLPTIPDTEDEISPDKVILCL
For assay [10], the system named is SKNO-1. The assay can be described thus: Effect on STAT1 level in human SKNO-1 cells upto 5 uM measured for 18 hrs by Western blot analysis. Type of assay: functional, cell-based.
The test system of assay [11] is MV4-11. The assay is described as follows: Effect on STAT3 level in human MV4-11 cells upto 5 uM measured for 18 hrs by Western blot analysis. Type of assay: functional, cell-based.
Assay [12] deals with MV4-11. The assay is described as follows: Effect on STAT2 level in human MV4-11 cells upto 5 uM measured for 18 hrs by Western blot analysis. Type of assay: functional, cell-based.
Assay [13] concerns the target T2, Signal transducer and activator of transcription 5B (Homo sapiens, UniProt P51692).
T2 sequence (P51692 whole entry): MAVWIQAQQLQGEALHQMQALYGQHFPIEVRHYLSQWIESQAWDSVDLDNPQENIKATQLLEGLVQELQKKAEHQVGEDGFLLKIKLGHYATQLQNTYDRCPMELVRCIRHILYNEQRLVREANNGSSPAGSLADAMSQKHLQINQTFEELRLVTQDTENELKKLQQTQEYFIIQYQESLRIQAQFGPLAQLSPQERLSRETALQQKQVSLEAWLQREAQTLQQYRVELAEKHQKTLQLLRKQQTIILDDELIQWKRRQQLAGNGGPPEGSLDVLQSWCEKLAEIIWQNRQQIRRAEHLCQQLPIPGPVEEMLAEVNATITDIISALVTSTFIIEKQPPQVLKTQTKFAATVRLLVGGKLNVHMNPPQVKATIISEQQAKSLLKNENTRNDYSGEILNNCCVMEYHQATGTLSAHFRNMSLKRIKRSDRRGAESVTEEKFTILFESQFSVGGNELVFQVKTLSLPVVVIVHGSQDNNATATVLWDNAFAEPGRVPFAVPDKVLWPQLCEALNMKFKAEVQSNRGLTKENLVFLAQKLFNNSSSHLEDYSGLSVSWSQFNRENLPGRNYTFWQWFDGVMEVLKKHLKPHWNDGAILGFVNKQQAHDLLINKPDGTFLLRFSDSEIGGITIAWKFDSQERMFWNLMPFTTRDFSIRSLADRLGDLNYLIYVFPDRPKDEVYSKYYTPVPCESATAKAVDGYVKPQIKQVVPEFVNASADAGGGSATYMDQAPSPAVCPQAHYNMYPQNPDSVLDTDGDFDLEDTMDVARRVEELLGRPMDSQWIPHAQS
The assay can be described thus: Binding affinity to STAT5B (unknown origin) assessed as inhibition constant by FP assay.

Assay [14] deals with T3, Signal transducer and activator of transcription 5A (Homo sapiens, UniProt P42229).
T3 sequence (P42229 whole entry): T1 sequence (whole entry)
The assay can be described thus: Binding affinity to N-terminal 6his-tagged human STAT5A (136 to 705 residues) expressed in Escherichia coli BL21-DE3 rosetta cells assessed as inhibition constant by FP assay.

In assay [15] the target is T3, Signal transducer and activator of transcription 5A. The assay is described as follows: Induction of STAT5 degradation in human SKNO-1 cells measured for 18 hrs by Western blot analysis. The assay is classed as cell-based.
Assay [16] has as its target T4, Signal transducer and activator of transcription 6 (Homo sapiens, UniProt P42226).
T4 sequence (P42226 whole entry): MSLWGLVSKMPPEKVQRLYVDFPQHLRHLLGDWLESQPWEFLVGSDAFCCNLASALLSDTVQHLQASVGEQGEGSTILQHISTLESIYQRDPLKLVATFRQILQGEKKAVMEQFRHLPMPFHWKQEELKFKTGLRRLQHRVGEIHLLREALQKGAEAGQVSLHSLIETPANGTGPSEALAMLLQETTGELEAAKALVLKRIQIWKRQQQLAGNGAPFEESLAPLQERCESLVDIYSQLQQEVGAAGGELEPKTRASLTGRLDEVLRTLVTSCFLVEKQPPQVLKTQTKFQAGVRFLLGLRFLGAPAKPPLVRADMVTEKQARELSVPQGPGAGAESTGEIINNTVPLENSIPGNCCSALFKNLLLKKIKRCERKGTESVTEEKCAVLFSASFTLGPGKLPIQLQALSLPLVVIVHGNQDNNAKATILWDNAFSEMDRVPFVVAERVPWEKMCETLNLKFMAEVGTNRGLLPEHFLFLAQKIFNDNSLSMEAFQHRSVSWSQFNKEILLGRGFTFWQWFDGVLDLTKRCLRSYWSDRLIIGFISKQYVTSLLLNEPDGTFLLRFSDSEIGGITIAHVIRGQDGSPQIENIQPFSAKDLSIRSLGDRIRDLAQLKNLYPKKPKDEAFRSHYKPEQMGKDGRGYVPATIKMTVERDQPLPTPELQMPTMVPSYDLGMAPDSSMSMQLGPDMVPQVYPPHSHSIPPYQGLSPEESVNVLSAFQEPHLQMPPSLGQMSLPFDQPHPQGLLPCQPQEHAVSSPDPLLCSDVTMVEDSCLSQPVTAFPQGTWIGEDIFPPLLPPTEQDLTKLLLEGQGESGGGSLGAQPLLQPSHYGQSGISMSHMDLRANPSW
The assay can be described thus: Induction of STAT6 degradation in human SKNO-1 cells measured for 18 hrs by Western blot analysis. The assay is classed as cell-based. As to conditions: read-out: DC50.

For assay [17], the target named is T1, Signal transducer and activator of transcription 5A (Homo sapiens). The assay is described as follows: Induction of STAT5 degradation in human SKNO-1 cells assessed as maximal degradation at 0.05 to 5 uM measured for 18 hrs by Western blot analysis relative to control. Type of assay: cell-based. As to conditions: dose 0.05-5 µM.
The species entered for assay [18] is Homo sapiens. The assay can be described thus: Selectivity ratio of DC50 for induction of STAT5 degradation in human SKNO-1 cells to DC50 for STAT6 degradation in human SKNO-1 cells. The assay is classed as cell-based.

In the case of `CN(CCCC#Cc1cccc2c1CN(C1CCC(=O)N(C)C1=O)C2=O)C(=O)CCN(C(=O)[C@@H]1CCCN1C(=O)[C@@H](NC(=O)c1cc2cc(C(F)(F)P(=O)(O)O)ccc2s1)C(C)(C)C)c1ccc(-c2nccs2)cc1` (some centres undefined), the result in [1], in assay [2], in assay [3], in assay [5], in assay [6] and in [7] was inactive. Moreover, the outcome in [10], in assay [11] and in [12] was inactive. The inhibition result in [4] and in assay [8] was “inactive” each time. In addition, in assay [9], the pKi is below 5.30.
With `CN(C)C(=O)CCN(C(=O)[C@@H]1CCCN1C(=O)[C@@H](NC(=O)c1cc2cc(C(F)(F)P(=O)(O)O)ccc2s1)C(C)(C)C)c1ccc(-c2nccs2)cc1`, the result in [1], in [2], in assay [3], in assay [5], in [6] and in assay [7] was inactive. Besides, the result in assay [10], in [11] and in assay [12] was inactive. Further, the pKi in assay [13] and in assay [14] was 6.00 in each case. Also, the inhibition entry in assay [4] and in assay [8] was “inactive” each time.
Turning to `CC(C)(C)[C@H](NC(=O)c1cc2cc(C(F)(F)P(=O)(O)O)ccc2s1)C(=O)N1CCC[C@H]1C(=O)N(CCC(=O)NCCCC#Cc1cccc2c1CN(C1CCC(=O)NC1=O)C2=O)c1ccc(Br)cc1` (some centres undefined), the DC50 in [15] is 0.23 µM; in [16], above 5 µM. Moreover, the Emax in assay [17] was above 95%. For the same molecule, in [18], the Ratio was above 20.
